Patent US11497942B2, “Cosmetic or dermatological preparation comprising a combination of a dye and an anti-inflammatory active ingredient” (BEIERSDORF AG, priority 2003, dated 2022)

Tests used:
[1] = Polarity of lipids and oils: interfacial tension towards water; type: physicochemical
Description: It has already been proposed to adopt interfacial tension towards water as a measure of the polarity index of an oil or of an oil phase. This means that the greater the polarity of the oil phase in question, the lower the interfacial tension between this oil phase and water. According to the invention, the interfacial tension is regarded as being one possible measure of the polarity of a given oil component.

[2] = cited from earlier work

Row | Polarity ([1]; mid-polar lipids) [mN/m] | Compound | further results
1 | 28.5 | Cyclopolydimethylsiloxan [Dow Corning Fluid 244] | 
2 | 22.7 | Phenyltrimethicone [Silicone oil VP 1120] | 

Further lines, the compound ahead of its results:

Row | Compound | Polarity ([1]; mid-polar lipids) [mN/m] | further results
3 | CCCCCCCC(=O)OC(=O)OC(=O)CCCCCCC [Cetiol CC, Dicaprylyl Carbonate] |  | Polarity ([1]; nonpolar lipids): 31.7 mN/m
4 | C=CC(C)(C)c1cc(/C=C/C(=O)c2ccc(O)cc2)c(OC)cc1O [licochalcone A] |  | solubility [2]: sparingly soluble
5 | Cyclomethicone [DC Fluid 345] | 28.5 | Polarity ([1]; silicone oils): 28.5 mN/m
